Data: US20060014730A1, “Ansamycin formulations and methods for producing and using same” (Conforma Therapeutics Corporation, priority 2002, published 2006)
Like-named read-outs stand apart in the source and are kept apart here.

How the values were obtained:
[1] = Drug concentration achieved in the emulsion; format: physicochemical
[2] = cited from earlier work; for Cmax: human, in vivo
[3] = tested on: adult patients with advanced solid tumors; settings: daily 1-hour infusion for 5 days every three weeks; cited from earlier work
[4] = Dissolution of 17-AAG in Phospholipon in Miglyol solution without ethanol; format: physicochemical; settings: lower melting point form crystallized from isopropanol rather than ethanol; room temperature
Source text: Alternatively, 17-AAG can be brought […], adding to this the drug, e.g., 17-AAG, and mixing, e.g., by stirring and/or sonication.

[5] = adult patients, daily 1-hour infusion for 5 days every three weeks

**Q.** For `C=CCNC1=C2C[C@@H](C)C[C@H](OC)[C@H](O)[C@@H](C)/C=C(\C)[C@H](OC(N)=O)[C@@H](OC)/C=C\C=C(/C)C(=O)NC(=CC1=O)C2=O` [Compound 17-AAG, 17-allylamino-geldanamycin], which “concentration achieved in the oil phase alone” value ([1]; oil phase alone) is on record?
**A.** The value was 20000 to 30000 µg/mL.

**Q.** What about the concentration achieved overall ([1]; whole emulsion) of the same compound?
**A.** Its concentration achieved overall is at most 3000 µg/mL.

**Q.** What about the “clearance (mean+/-SD)” value [2, 5] of the same compound?
**A.** Its value is 41.0 ± 13.5 L/h.

**Q.** What about the “steady-state volume (mean+/-SD)” value [2, 5] of the same compound?
**A.** Its value is 86.6+/−34.6 L/m^2.

**Q.** And the “terminal half-life (mean+/-SD)” value [2, 5]?
**A.** Its value is 2.5 ± 0.5 h.

**Q.** And the Cmax ([2]; 40 mg/m2)?
**A.** Its Cmax is 1860 nM.

**Q.** What about the Cmax ([2]; 56 mg/m2) of the same compound?
**A.** Its Cmax is 3170 nM.

**Q.** And the “maximum tolerated dose (MTD)” value [3]?
**A.** Its value is 40 mg/m^2.

**Q.** What about the “dissolution into the Phospholipon in Miglyol solution” value [4] of the same compound?
**A.** The value was “more readily can be dissolved”.
